In paper PMC8904451, “Novel chalcone-derived pyrazoles as potential therapeutic agents for the treatment of non-small cell lung cancer” (Scientific Reports, 2022):
Like-named read-outs stand apart in the source and are kept apart here.

Tests used:
A-549 cells [1] = assay: MTT cell viability assay, A-549; assay type: cell-based, human; settings: 72 h, MTT, read-out: IC50 ± SD, growth inhibition, A-549
Description: All the synthesized chalcone-derived pyrazoles were evaluated for their antiproliferative activity against three human non-small cell lung cancer cell lines: A-549, H226, and H460, and a nonmalignant human embryonic kidney cell line HEK293. Cisplatin and 5-fluorouracil (5-FU) were used as a reference. […] The results of the studies are expressed as the IC50 concentration that inhibits 50% growth of cells. […] Following treatment with PCH-1, the viability of all the tested cancer cell lines decreased in a concentration-dependent manner.
The cell viability assay was performed for A-549, H226, H460, and HEK293 cells after treatment with the test compounds by using the 3-(4,5-dimethylthiazol-2-yl)-2,5-diphenyltetrazolium bromide (MTT, Sigma-Aldrich) assay. Briefly, cells were seeded onto 96-well culture plates for attachment. After 24 h, triplicate wells were treated with DMSO (1%) and the agents. […] After 2–4 h of incubation, the medium was removed, and the formazan crystals were dissolved in 100 μl of DMSO. The absorption was measured at 450 nm with an ASYS UVM340 microplate reader (Biochrom Ltd.). The 50% inhibitory concentration (IC50) was defined as the concentration that reduced the absorbance of the DMSO-treated wells by 50% of the vehicle. The IC50 values were generated from GraphPad Prism 9 software by plotting the survival curve as a function of dose from 3 independent experiments.

H226 cells = assay: MTT cell viability assay, H226; assay type: cell-based, human; settings: 72 h, MTT, read-out: IC50 ± SD, growth inhibition, H226
Description: (§1) All the synthesized chalcone-derived pyrazoles were evaluated for their antiproliferative activity against three human non-small cell lung cancer cell lines: A-549, H226, and H460, and a nonmalignant human embryonic kidney cell line HEK293. Cisplatin and 5-fluorouracil (5-FU) were used as a reference. Cells were exposed to a range of PCH concentrations (0.5–100 µM) for 72 h and analyzed by 3-(4,5-dimethylthiazol-2-yl)-2,5-diphenyl-2H-tetrazolium bromide (MTT) assay. The results of the studies are expressed as the IC50 concentration that inhibits 50% growth of cells. […] Following treatment with PCH-1, the viability of all the tested cancer cell lines decreased in a concentration-dependent manner.
(§2) The cell viability assay was performed for A-549, H226, H460, and HEK293 cells after treatment with the test compounds by using the 3-(4,5-dimethylthiazol-2-yl)-2,5-diphenyltetrazolium bromide (MTT, Sigma-Aldrich) assay. Briefly, cells were seeded onto 96-well culture plates for attachment. After 24 h, triplicate wells were treated with DMSO (1%) and the agents. After 72 h of incubation at 37 °C in 5% CO2, the MTT solution (0.4 mg/ml) was added to each well. After 2–4 h of incubation, the medium was removed, and the formazan crystals were dissolved in 100 μl of DMSO. The absorption was measured at 450 nm with an ASYS UVM340 microplate reader (Biochrom Ltd.). The 50% inhibitory concentration (IC50) was defined as the concentration that reduced the absorbance of the DMSO-treated wells by 50% of the vehicle. The IC50 values were generated from GraphPad Prism 9 software by plotting the survival curve as a function of dose from 3 independent experiments.

H460 cells = assay: MTT cell viability assay, H460; assay type: cell-based, human; settings: 72 h, MTT, read-out: IC50 ± SD, growth inhibition, H460
Description: as §1, §2

HEK293 cells = assay: MTT cell viability assay, HEK293; assay type: cell-based, human; settings: nonmalignant cells, read-out: IC50 ± SD, growth inhibition, HEK293
Description: as §1, §2

A-549 cells [2] = assay: Intracellular ROS measurement (H2DCFDA, flow cytometry); assay type: cell-based, human; settings: A-549, all the tested time points (3, 6, 24 h)
From the text: The generation of intracellular reactive oxygen species (ROS) causes an imbalance of cellular redox homeostasis, followed by damage of cellular components and cell death. Therefore, compounds with the ability to produce high levels of ROS and/or inhibit antioxidant processes are often used in anticancer therapies. In the present study, the effect of PCH-1 on ROS generation in A-549 cells was investigated by flow cytometry. As an indicator of ROS generation, the fluorescent probe 2ʹ,7ʹ-dichlorodihydrofluorescein diacetate (H2DCFDA) was used, which undergoes oxidation by ROS to form a highly fluorescent compound 2ʹ,7ʹ-dichlorofluorescein (DCF). As shown in Supplementary Fig. S6 in Supplementary Information, compound PCH-1 induced a massive amount of ROS in A-549 cells in a time-dependent manner. […] Moreover, the induction of ROS was equally high for PCH-1 and the reference compound H2O2 in all the tested time points.
For determination the ROS generation, cells were treated with IC90 of PCH-1, H2O2, or 1% DMSO for 3, 6, and 24 h. Next, a 1 µM CM-H2DCFDA (#C6827; Thermo-Fisher) probe was added to the cells in each plate 30 min before the end of the drug treatment. After incubation cells were collected by trypsinization, stained with 7-Aminoactinomycin D (7-AAD, Sigma-Aldrich), and measured. The analysis was performed with Guava EasyCyte 8 cell sorter (Merck Millipore) and FlowJo software v10. Each experiment was repeated independently three times.

tubulin = assay: HTS-tubulin polymerization assay; assay type: biochemical; settings: 120-min kinetic reaction, absorbance 340 nm, vs vehicle
Description: To further evaluate whether the tubulin–microtubule system was the target site of PCH-1, in vitro microtubule polymerization assays were performed using the microtubule protein with Paclitaxel and Vincristine as a reference. Paclitaxel and Vincristine are antimitotic drugs that have been commonly used in conventional chemotherapy for decades. In 1979, it was shown that Paclitaxel accelerates the initiation of tubulin fiber polymerization and stabilizes the formed tubulin fibers in vitro, even in the absence of GTP or MAP in the solution[30]. Vincristine, on the other hand, binds to tubulin and inhibits its polymerization.
The assay was performed according to the manufacturer’s instructions. Briefly, compounds were diluted in DMSO to a concentration of 2 mM and then in GTB buffer to a concentration of 50 µM. In the wells of a 96-well plate (UV transparent, half surface wells) previously heated to 37 °C, 10 µl of dilutions of the test compounds were placed in duplicate. The plate was incubated for 2 min at 37 °C, and 100 µl of freshly prepared tubulin solution (4 mg/ml) in GTB-GTP buffer was then added. The plate was immediately placed in a Tecan SPARK 10 M plate reader, and the reaction kinetics were measured with the following settings: absorbance reading: 340 nm, 37 °C, interval: 45 s, number of cycles: 160.

Row | Structure (SMILES) | IC50 (A-549 cells [1]; Homo sapiens, A549) | IC50 (H226 cells; Homo sapiens, NCI-H226) | IC50 (H460 cells; Homo sapiens, NCI-H460) | IC50 (HEK293 cells; Homo sapiens, HEK293, 72 h) | also measured
1 | N.N.[Cl][Pt][Cl] [Cisplatin, reference compound] |  |  |  |  | IC50 (A-549 cells [1]): 29.01 ± 0.12 µM; IC50 (H226 cells): 17.5 ± 2.12 µM; IC50 (H460 cells): 21.5 ± 1.87 µM; IC50 (HEK293 cells; 72 h): 28.4 ± 1.97 µM
2 | OO [H2O2, reference compound] |  |  |  |  | induction of ROS, reference compared with PCH-1 (A-549 cells [2]): equally high
3 | COc1ccccc1C1=NN(C(C)=O)C(c2ccc3c(c2)OCO3)C1 (centres unmarked) [PCH-4, 1-[5-(2H-1,3-benzodioxol-5-yl)-3-(2-methoxyphenyl)-4,5-dihydro-1H-pyrazol-1-yl]ethan-1-one] | > 100 µM | 86.7 ± 4.7 µM | 63.4 ± 3.34 µM | > 100 µM | 
4 | COc1ccc(C2=NN(C(C)=O)C(c3ccc4c(c3)CCO4)C2)cc1 (centres unmarked) [PCH-7, 1-[5-(2,3-dihydro-1-benzofuran-5-yl)-3-(4-methoxyphenyl)-4,5-dihydro-1H-pyrazol-1-yl]ethan-1-one] | > 100 µM | 41.5 ± 1.12 µM | 30.2 ± 2.14 µM | > 100 µM | 
5 | COc1ccc(C2=NN(C(C)=O)C(c3cc4c(cc3OC)OCO4)C2)cc1 (centres unmarked) [PCH-8, 1-[5-(6-methoxy-2H-1,3-benzodioxol-5-yl)-3-(4-methoxyphenyl)-4,5-dihydro-1H-pyrazol-1-yl]ethan-1-one] | > 100 µM | 61.1 ± 3.12 µM | 30.2 ± 2.14 µM | > 100 µM | 
6 | CC(=O)O[C@H]1C(=O)[C@@]2(C)[C@H]([C@H](OC(=O)c3ccccc3)[C@]3(O)C[C@H](OC(=O)[C@H](O)[C@@H](NC(=O)c4ccccc4)c4ccccc4)C(C)=C1C3(C)C)[C@]1(OC(C)=O)CO[C@@H]1C[C@@H]2O [Paclitaxel] |  |  |  |  | effect on tubulin polymerization kinetics (tubulin): accelerated the nucleation phase and increased the total mass of tubulin polymer
7 | CC[C@]1(O)C[C@H]2CN(CCc3c([nH]c4ccccc34)[C@@](C(=O)OC)(c3cc4c(cc3OC)N(C=O)[C@H]3[C@@](O)(C(=O)OC)[C@H](OC(C)=O)[C@]5(CC)C=CCN6CC[C@]43[C@@H]65)C2)C1 [Vincristine, vincristine] |  |  |  |  | effect on tubulin polymerization kinetics (tubulin): extended the nucleation time and reduced the total mass of tubulin polymer

More lines, main results first:

Row | IC50 (A-549 cells [1]; Homo sapiens, A549) | IC50 (H226 cells; Homo sapiens, NCI-H226) | IC50 (H460 cells; Homo sapiens, NCI-H460) | Structure (SMILES) | IC50 (HEK293 cells; Homo sapiens, HEK293, 72 h) | also measured
8 | 8.12 ± 1.01 µM | 4.01 ± 0.76 µM | 4.08 ± 0.43 µM | O=c1[nH]cc(F)c(=O)[nH]1 [5-FU, 5-fluorouracil, reference compound] | 11.1 ± 1.53 µM | 
9 | 0.54 ± 0.21 µM | 1.03 ± 0.16 µM | 0.05 ± 0.01 µM | COc1cc([C@@H]2c3cc4c(cc3[C@@H](O[C@@H]3O[C@@H]5CO[C@@H](C)O[C@H]5[C@H](O)[C@H]3O)[C@H]3COC(=O)[C@H]23)OCO4)cc(OC)c1O [Etoposide, reference compound] | 1.91 ± 0.97 µM | 
10 | > 100 µM | 40.5 ± 3.52 µM | 43.8 ± 1.12 µM | COc1cc(C2=NN(C(C)=O)C(c3ccc4c(c3)OCO4)C2)cc(OC)c1OC (centres unmarked) [PCH-2, 1-[5-(2H-1,3-benzodioxol-5-yl)-3-(3,4,5-trimethoxyphenyl)-4,5-dihydro-1H-pyrazol-1-yl]ethan-1-one] | > 100 µM | 
11 | > 100 µM | 86.7 ± 0.92 µM | 24.5 ± 1.74 µM | CC(=O)N1N=C(c2ccc(C)cc2)CC1c1ccc2c(c1)OCO2 (centres unmarked) [PCH-3, 1-[5-(2H-1,3-benzodioxol-5-yl)-3-(4-methylphenyl)-4,5-dihydro-1H-pyrazol-1-yl]ethan-1-one] | > 100 µM | 
12 | 60.9 ± 4.3 µM | 58 ± 2.56 µM | 38.8 ± 1.77 µM | CC(=O)N1N=C(c2ccc3c(c2)OCO3)CC1c1ccc2c(c1)OCO2 (centres unmarked) [PCH-5, 1-[3,5-bis(2H-1,3-benzodioxol-5-yl)-4,5-dihydro-1H-pyrazol-1-yl]ethan-1-one] | 47 ± 3.18 µM | 
13 | 21.5 ± 4.26 µM | 24.4 ± 2.13 µM | 18.1 ± 2.13 µM | CC(=O)N1N=C(c2ccc(OC(F)(F)F)cc2)CC1c1ccc2c(c1)OCO2 (centres unmarked) [PCH-6, 1-{5-(2H-1,3-benzodioxol-5-yl)-3-[4-(trifluoromethoxy)phenyl]-4,5-dihydro-1H-pyrazol-1-yl}ethan-1-one] | 42.9 ± 1.23 µM | 
14 | 79.5 ± 4.97 µM | 38.4 ± 3.53 µM | 43.8 ± 3.97 µM | COc1cc2c(cc1C1=NN(C(C)=O)C(c3ccc(O)cc3)C1)SCO2 (centres unmarked) [PCH-9, 1-[5-(4-hydroxyphenyl)-3-(6-methoxy-2H-1,3-benzoxathiol-5-yl)-4,5-dihydro-1H-pyrazol-1-yl]ethan-1-one] | 34.4 ± 2.01 µM | 
